This is an account of results in patent US20180290979A1, “COMPOSITION HAVING COMPOUND ACCELERATING PHOSPHORYLATION OF AMPK AS EFFECTIVE COMPONENT” (Kyoto University, priority 2015, published 2018).

The test system of assay [1] is AMPKα. The assay can be described thus: Enhancement of phosphorylation of AMPK, Western blotting in NIH/3T3 cells. Format: cell-based, mouse. As to the method:
(§1) Compound 1 was added to mouse fibroblast NIH/3T3 cells under serum-free conditions, the cells were harvested over a period of time to prepare a disrupted cell suspension, and phosphorylated AMPKα, total AMPKα, phosphorylated ACC, and total ACC were detected by Western blotting. ACC denotes acetyl-CoA carboxylase.
(In general: Immunoblotting shows a protein as a band on a membrane.)

Assay [2] deals with ACC (acetyl-CoA carboxylase). The assay can be described thus: Enhancement of phosphorylation of ACC, Western blotting in NIH/3T3 cells. The assay is classed as cell-based, mouse. As to the method:
as §1

In assay [3] the test system is NIH/3T3 cells. The assay can be described thus: Inhibition of cell death caused by serum starvation, WST-8 assay. The settings on record: serum-free. The assay is classed as cell-based, mouse. As to the method:
NIH/3T3 cells were cultured under serum-containing or serum-free conditions, and after a predetermined period of time, a WST-8 assay was performed to confirm the cell number (N=6).
FIG. 2 is a graph comparing the viable cell numbers in the serum-starved condition in the presence and absence of Compound 1.

For assay [4], the system named is NIH/3T3 cells. The assay can be described thus: Inhibition of cell death after storage at 4° C. and rewarming to 37° C. The assay is classed as cell-based, mouse. Particulars: cells stored at 4° C. for 24 hours and then rewarmed to 37° C.
The subject of assay [5] is mouse fibroblast MEF. The assay can be described thus: Inhibition of TNF-α induced apoptosis. The assay is classed as cell-based.
For assay [6], the system named is Mouse spinal cord macrophages. The assay can be described thus: Inhibition of cell death in primary culture, WST-8 assay. Format: cell-based. Particulars: serum-containing or serum-free. The method, then:
Mouse spinal cord macrophages were cultured under serum-containing or serum-free conditions, and after a predetermined period of time, a WST-8 assay was performed to confirm the cell number (N=6).
(In general: Tetrazolium assays rely on reduction of a dye to a coloured formazan, in cell work by metabolically active cells.)

The subject of assay [7] is liver warm ischemia reperfusion injury. The assay can be described thus: Rat liver warm ischemia reperfusion injury model. Format: in vivo. The settings on record: LEW rats, 0.3 mg/kg before ischemia. The method, then:
An experiment was performed with a rat liver warm ischemia reperfusion model, in which LEW rats of eight to nine weeks of age were subjected to laparotomy under general anesthesia by endotracheal intubation, and after 20 minutes of warm ischemia applied by blocking the hepatic portal region, the blocking was released and reperfusion was carried out. With respect to positive subjects, using AICAR (aminoimidazole-4-carboxamide rebonucleoside), which is an AMPK activator, a solvent, Compound 1 (0.3 mg/kg), and AICAR (100 mg/kg) were administered, respectively, before ischemia, and aspartate aminotransferase (AST) and alanine aminotransferase (ALT), which are liver deviation enzymes, in peripheral blood were measured six hours after the reperfusion (N=3).

Assay [8] deals with HeLa cells. The assay can be described thus: Induction of cell death in cancer cells, WST-8 assay. The assay is classed as cell-based. The settings on record: human cervical cancer.
The test system of assay [9] is Jurkat cells. The description is as above. Format: cell-based. Particulars: human T-cell leukemia.
Assay [10] deals with SH-SY5Y cells. The assay can be described thus: Induction of cell death in cancer cells. Format: cell-based. Particulars: human neuroblast.
The subject of assay [11] is LC3-II. The assay can be described thus: Autophagy marker LC3-II in cancer cells, Western blotting. Format: cell-based, human. Particulars: HeLa cells, in the presence of 4 mM of BafA, cultured for 21 hours. As to the method: Bafilomycin A1 (BafA) is an autophagy inhibitor. BafA was added to HeLa cells for one hour and then Compound 1 was added thereto. After this was cultured for 21 hours, the cells were harvested to prepare a disrupted cell suspension, and the amount of LC3-II was confirmed by Western blotting. LC3-II is an autophagy marker.

The test system of assay [12] is HeLa cells. The assay can be described thus: Effect of autophagy inhibitor 3-MA on cell death induced by Compound 1, WST-8 assay. The assay is classed as cell-based, human. As to the method: 3-Methyladenine (3-MA) is a class III PI3K inhibitor and is also an autophagy inhibitor. 3-MA was added to HeLa cells for one hour, and three days later, a WST-8 assay was performed to confirm the number of the cells.
Thus, it was confirmed that cell death induced by Compound 1 in cancer cells was autophagic.

[13] abbreviates: 16 hours after the addition (data not shown).
Where [14] appears, read: NIH/3T3 cells, serum-free, within 10 minutes after the addition.

Regarding `O=S(=O)(Nc1cc(C(F)(F)F)ccc1N1CC[C@@H]2CCCC[C@H]2C1)c1ccc(F)cc1` [Compound 1, 4-fluoro-N-(2-((4aS,8aR)-octahydroisoquinolin-2(1H)-yl)-5-(trifluoromethyl)phenyl)benzenesulfonamide], the “phosphorylation of AMPK” value is reported as “maintained” in [1] (setting [13]) and “enhanced” in assay [1] (setting [14]). Further, the “phosphorylation of ACC” value in assay [2] (setting [13]) was “maintained”; in assay [2] (setting [14]), “enhanced”. Moreover, the “cell death caused by serum starvation (viable cell number)” value (from here on “cell death caused by serum starvation”) in assay [3] is listed as “significantly inhibited cell death”. Besides, the “cell death after cold storage and rewarming” value in [4] is given as “cell death inhibitory effect was observed”. Further, in assay [5], the “TNF-α induced apoptosis (proinflammatory cell death)” value is recorded as “cell death inhibitory effect was observed”. Moreover, the “cell death in primary culture (viable cell number)” value in [6] is listed as “significantly inhibited cell death”. Besides, the hepatic injury result in [7] is recorded as “alleviate hepatic injury”. For the same compound, the “elevation of liver deviation enzymes (AST, ALT) in peripheral blood” value in [7] (20 minutes warm ischemia, six hours after the reperfusion) is on record as “inhibited the elevation of liver deviation enzymes”. For the same compound, the “cell death in cancer cells” value in assay [8], in assay [9] and in assay [10] was “able to induce cell death” throughout. The “amount of LC3-II” value in assay [11] was “considerably increased”. Moreover, the “type of cell death induced in cancer cells” value in assay [12] (HeLa cells, with 3-MA, three days) was “autophagic”.
In the case of `O=S(=O)(Nc1cc(C(F)(F)F)ccc1N1CC[C@@H]2CCCC[C@H]2C1)c1ccc2ccccc2c1` [Compound 6, N-(2-((4aS,8aR)-octahydroisoquinolin-2(1H)-yl)-5-(trifluoromethyl)phenyl)-2-naphthalenesulfonamide], the “cell death caused by serum starvation” value in assay [3] is “cell death inhibitory effect equivalent to that of Compound 1”.
The same measure, in the same setting: next, `O=S(=O)(Nc1cc(C(F)(F)F)ccc1N1CC[C@@H]2CCCC[C@H]2C1)c1ccc(Br)cc1` [Compound 4, 4-bromo-N-(2-((4aS,8aR)-octahydroisoquinolin-2(1H)-yl)-5-(trifluoromethyl)phenyl)benzenesulfonamide]: “cell death inhibitory effect equivalent to that of Compound 1”.
On the same count and under the same terms, next, `Cc1ccc(S(=O)(=O)Nc2cc(C(F)(F)F)ccc2N2CC[C@@H]3CCCC[C@H]3C2)cc1` [Compound 3, N-(2-((4aS,8aR)-octahydroisoquinolin-2(1H)-yl)-5-(trifluoromethyl)phenyl)-4-toluenesulfonamide]: “cell death inhibitory effect equivalent to that of Compound 1”.
Take `Cn1cnc(N)c2ncnc1-2` [Compound 3-MA, 3-Methyladenine, reference compound]: the “survival rate of the cells” value in assay [12] (HeLa cells with cell death induced by Compound 1, depending on the amount of 3-MA added) is on record as “improved”.
For the compound `O=S(=O)(Nc1cc(C(F)(F)F)ccc1N1CC[C@@H]2CCCC[C@H]2C1)c1ccccc1` [Compound 2, N-(2-((4aS,8aR)-octahydroisoquinolin-2(1H)-yl)-5-(trifluoromethyl)phenyl)benzenesulfonamide], the “cell death caused by serum starvation” value in assay [3] was “cell death inhibitory effect equivalent to that of Compound 1”.
